Converted amounts (≈) assume the structure as drawn. “And” between values parts separate entries of the source, which are not always exact repeats. Equal entries are not always repeated. Where two headings read alike, the source gives them in different places.
How the values were obtained:
[1] = tested on: M. smegmatis (strain ATCC 700084); experiment: MIC, M. smegmatis (BacTiter-Glo); type: cell-based, Mycobacterium smegmatis; conditions: strain ATCC 700084, Middlebrook 7H9 + ADC, 90% growth inhibition, 20 hours
A. baumannii = experiment: MIC by broth microdilution, A. baumannii (WT); type: cell-based, Acinetobacter baumannii; conditions: for MIC A. baumannii: RPMI medium supplemented with 10% FCS, 35° C. 20 hours; for A. baumannii MIC, WT: Table 4, RPMI + FCS
S. aureus = experiment: MIC by broth microdilution, S. aureus; type: cell-based, Staphylococcus aureus; conditions: cation adjusted Mueller Hinton broth, 35° C. 20 hours
[2] = tested on: A. baumannii RpoB H535Q/S521T; experiment: microbe, parasite or virus in culture; type: cell-based, Acinetobacter baumannii
[3] = tested on: Enterococcus faecalis (strain ATCC 51575); experiment: MIC by broth microdilution, E. faecalis; type: cell-based; conditions: strain ATCC 51575, cation adjusted Mueller Hinton broth
[4] = tested on: S. pneumoniae (strain ATCC 49619); experiment: MIC by broth microdilution, S. pneumoniae; type: cell-based, Streptococcus pneumoniae; conditions: strain ATCC 49619, cation adjusted Mueller Hinton broth + 5% laked horse blood
[5] = tested on: S. pyogenes (strain IHMA 1117021); experiment: MIC by broth microdilution, S. pyogenes; type: cell-based, Streptococcus pyogenes; conditions: strain IHMA 1117021, cation adjusted Mueller Hinton broth + 5% laked horse blood
A. baumannii RpoB N527D = experiment: microbe, parasite or virus in culture; type: cell-based, Acinetobacter baumannii
A. baumannii RpoB L542F = experiment: microbe, parasite or virus in culture; type: cell-based, Acinetobacter baumannii
A. baumannii RpoB I581M = experiment: microbe, parasite or virus in culture; type: cell-based, Acinetobacter baumannii
A. baumannii RpoB H535Q = experiment: microbe, parasite or virus in culture; type: cell-based, Acinetobacter baumannii
A. baumannii RpoB H535L = experiment: microbe, parasite or virus in culture; type: cell-based, Acinetobacter baumannii
A. baumannii RpoB H535C = experiment: microbe, parasite or virus in culture; type: cell-based, Acinetobacter baumannii
[6] = tested on: H. influenzae (strain ATCC 49247); experiment: MIC by broth microdilution, H. influenzae; type: cell-based, Hemophilus influenzae; conditions: strain ATCC 49247, Hemophilus test medium broth
[7] = tested on: M. abscessus (strain ATCC 19977); experiment: MIC by broth microdilution, M. abscessus; type: cell-based, Mycobacterium abscessus; conditions: strain ATCC 19977, Middlebrook 7H9 broth + ADC
[8] = tested on: Staphylococcus epidermidis (strain ATCC 12228); experiment: MIC by broth microdilution, S. epidermidis; type: cell-based; conditions: strain ATCC 12228, cation adjusted Mueller Hinton broth
A. baumannii RpoB S583L = experiment: microbe, parasite or virus in culture; type: cell-based, Acinetobacter baumannii
[9] = tested on: Enterococcus faecium (strain NCTC 12204); experiment: MIC by broth microdilution, E. faecium; type: cell-based; conditions: strain NCTC 12204, cation adjusted Mueller Hinton broth
[10] = tested on: M. tuberculosis (H37Rv strain ATCC 27294); type: cell-based, Mycobacterium tuberculosis

Compound	MIC M. smegmatis [1] [µg/mL]	MIC A. baumannii (A. baumannii) [µg/mL]	A. baumannii MIC, WT (A. baumannii) [µg/mL]	MIC, RpoB mutation H535Q/S521T [2]	MIC E. faecalis [3] [µg/mL]	MIC S. pneumoniae [4] [µg/mL]	MIC S. pyogenes [5] [µg/mL]	MIC H. influenzae [6] [µg/mL]	MIC M. abscessus [7] [µg/mL]	MIC S. epidermidis [8] [µg/mL]	MIC E. faecium [9] [µg/mL]	MIC M. tuberculosis [10] [µg/mL]	other results
CO[C@H]1/C=C/O[C@@]2(C)Oc3c(C)c(O)c4c(c3C2=O)C2=NC3(CC5CCC(C3)N5)NC2=C(NC(=O)/C(C)=C\C=C\[C@H](C)[C@H](O)[C@@H](C)[C@@H](O)[C@@H](C)[C@H](OC(C)=O)[C@@H]1C)C4=O (single isomer, unassigned) [Compound 12B]	0.32	< 0.002	≤0.002	0.5 µg/mL and 1 µg/mL	0.125 (≈ 0.153 µM)	< 0.002	< 0.002	0.06 (≈ 0.0734 µM)	8	< 0.002	0.03 (≈ 0.0367 µM)	0.01 (≈ 0.0122 µM)	MIC S. aureus (S. aureus): 0.016 µg/mL (≈ 0.0196 µM); MIC, RpoB mutation N527D (A. baumannii RpoB N527D; Table 5 part 3 c5, clinical isolate, RPMI + 10% FCS): ≤0.002 µg/mL; MIC, RpoB mutation L542F (A. baumannii RpoB L542F): 0.002 µg/mL (≈ 0.00245 µM); MIC, RpoB mutation I581M (A. baumannii RpoB I581M; Table 5 part 1 c1, clinical isolate, RPMI + 10% FCS): 0.004 µg/mL; A. baumannii MIC, RpoB H535Q (A. baumannii RpoB H535Q; Table 4, RPMI + FCS): ≤0.002 µg/mL; A. baumannii MIC, RpoB H535L (A. baumannii RpoB H535L; Table 4, RPMI + FCS): 0.03 µg/mL; A. baumannii MIC, RpoB H535C (A. baumannii RpoB H535C; Table 4, RPMI + FCS): ≤0.002 µg/mL; MIC, RpoB mutation S583L (A. baumannii RpoB S583L; Table 5 part 3 c4, clinical isolate, RPMI + 10% FCS): 0.004 µg/mL
CO[C@H]1/C=C/O[C@@]2(C)Oc3c(C)c(O)c4c(c3C2=O)C2=NC3(NC2=C(NC(=O)/C(C)=C\C=C\[C@H](C)[C@H](O)[C@@H](C)[C@@H](O)[C@@H](C)[C@H](OC(C)=O)[C@@H]1C)C4=O)C1CC2CC3CN(C2)C1 (some centres unmarked) [Compound 3B]	0.65	< 0.002	≤0.002	1 µg/mL and 0.5 µg/mL	0.5 (≈ 0.593 µM)	< 0.002	< 0.002	0.125 (≈ 0.148 µM)	8	< 0.002	0.03 (≈ 0.0356 µM)	0.01 (≈ 0.0119 µM)	MIC, RpoB mutation N527D (A. baumannii RpoB N527D): ≤0.002 µg/mL; MIC, RpoB mutation I581M (A. baumannii RpoB I581M): ≤0.002 µg/mL; A. baumannii MIC, RpoB H535Q (A. baumannii RpoB H535Q): ≤0.002 µg/mL; A. baumannii MIC, RpoB H535L (A. baumannii RpoB H535L): 0.016 µg/mL; A. baumannii MIC, RpoB H535C (A. baumannii RpoB H535C): ≤0.002 µg/mL; MIC, RpoB mutation S583L (A. baumannii RpoB S583L): ≤0.002 µg/mL

Reference: patent publication US20250101039A1, “RIFAMYCIN DERIVATIVES FOR THE TREATMENT OF DISEASES” (priority 2022, published 2025)
